From ChEMBL document CHEMBL1201862, “PubChem BioAssay data set” (2004)
“And” between values parts separate entries of the source, which are not always exact repeats. Equal values may be shown once. The source made the active and inactive calls.

Experiments:
[1] = target: T1, Mannose-6-phosphate isomerase (Homo sapiens, UniProt P34949); assay: PMI enzyme inhibitors, confirmation, biochemical, fluorescence intensity (AID 1535)
T1 sequence (P34949 whole entry): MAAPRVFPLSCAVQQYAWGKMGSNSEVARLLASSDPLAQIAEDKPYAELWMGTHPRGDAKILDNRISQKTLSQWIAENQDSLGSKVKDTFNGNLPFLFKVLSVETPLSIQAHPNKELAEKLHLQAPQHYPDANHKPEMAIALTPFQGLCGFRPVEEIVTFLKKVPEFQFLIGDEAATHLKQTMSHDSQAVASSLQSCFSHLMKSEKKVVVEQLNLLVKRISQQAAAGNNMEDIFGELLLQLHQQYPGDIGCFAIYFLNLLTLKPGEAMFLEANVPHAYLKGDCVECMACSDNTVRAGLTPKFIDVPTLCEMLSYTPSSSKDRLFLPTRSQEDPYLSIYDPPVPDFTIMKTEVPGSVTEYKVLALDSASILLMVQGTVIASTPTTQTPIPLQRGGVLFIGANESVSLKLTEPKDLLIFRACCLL

Phosphomannomutase 2 = Phosphomannomutase 2 (Homo sapiens, UniProt O15305); assay: Counter screen SAR assay for PMM2 inhibitors via a fluorescence intensity assay. [Related pubchem assays (depositor defined):AID1545, AID1574]
[2] = target: T2, Dual specificity protein phosphatase 6 (Rattus norvegicus, UniProt Q64346); assay: MKP-3 phosphatase inhibitors, primary screen, biochemical, rat enzyme, in vitro (AID 425)
T2 sequence (Q64346 whole entry): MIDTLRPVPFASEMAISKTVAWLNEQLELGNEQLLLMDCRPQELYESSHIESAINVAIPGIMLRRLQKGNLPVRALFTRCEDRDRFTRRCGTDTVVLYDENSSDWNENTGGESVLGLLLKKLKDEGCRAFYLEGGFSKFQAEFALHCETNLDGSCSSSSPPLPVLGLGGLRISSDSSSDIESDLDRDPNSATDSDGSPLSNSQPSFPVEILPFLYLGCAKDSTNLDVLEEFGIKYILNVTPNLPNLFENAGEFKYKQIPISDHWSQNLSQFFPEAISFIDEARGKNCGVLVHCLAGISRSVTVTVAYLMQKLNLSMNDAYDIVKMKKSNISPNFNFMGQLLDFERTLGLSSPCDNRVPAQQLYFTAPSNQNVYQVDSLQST

[3] = target: T3, Rac GTPase-activating protein 1 (Homo sapiens, UniProt Q9H0H5); assay: MgcRacGAP GTPase-activating activity inhibitors, confirmation, biochemical, ADP Hunter fluorescence, primary and confirmatory (AID 624330); assay type: functional
T3 sequence (Q9H0H5 whole entry): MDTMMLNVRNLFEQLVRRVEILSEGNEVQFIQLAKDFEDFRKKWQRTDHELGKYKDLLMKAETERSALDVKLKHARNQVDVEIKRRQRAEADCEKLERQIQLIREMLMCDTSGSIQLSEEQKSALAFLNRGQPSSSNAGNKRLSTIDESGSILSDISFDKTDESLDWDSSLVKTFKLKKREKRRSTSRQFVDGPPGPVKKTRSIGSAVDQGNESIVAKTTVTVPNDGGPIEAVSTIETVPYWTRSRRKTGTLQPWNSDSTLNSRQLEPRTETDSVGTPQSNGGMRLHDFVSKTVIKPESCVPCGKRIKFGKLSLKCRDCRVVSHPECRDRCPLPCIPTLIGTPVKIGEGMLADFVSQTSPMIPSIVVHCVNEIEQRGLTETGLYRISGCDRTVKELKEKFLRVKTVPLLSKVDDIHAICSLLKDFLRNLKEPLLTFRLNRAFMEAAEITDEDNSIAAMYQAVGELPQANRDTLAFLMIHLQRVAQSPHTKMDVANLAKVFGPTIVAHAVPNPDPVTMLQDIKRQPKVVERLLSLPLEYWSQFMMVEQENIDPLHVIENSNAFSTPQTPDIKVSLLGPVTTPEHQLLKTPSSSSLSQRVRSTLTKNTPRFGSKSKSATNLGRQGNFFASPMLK

[4] = target: DNA dC->dU-editing enzyme APOBEC-3G (Homo sapiens, UniProt Q9HC16); assay: Dose Response confirmation of small molecule APOBEC3G DNA Deaminase Inhibitors via a fluorescence-based single-stranded DNA deaminase assay. [Related pubchem assays (depositor defined):AID493012, AID493028]; assay type: functional
[5] = target: T4, Tyrosine-protein phosphatase non-receptor type 7 (Homo sapiens, UniProt P35236); assay: SAR analysis of chemical inhibitors of HePTP using a Fluorescent assay - Set 2. [Related pubchem assays (depositor defined):AID1059, AID1077, AID1661, AID2085, AID521]; assay type: functional
T4 sequence (P35236 whole entry): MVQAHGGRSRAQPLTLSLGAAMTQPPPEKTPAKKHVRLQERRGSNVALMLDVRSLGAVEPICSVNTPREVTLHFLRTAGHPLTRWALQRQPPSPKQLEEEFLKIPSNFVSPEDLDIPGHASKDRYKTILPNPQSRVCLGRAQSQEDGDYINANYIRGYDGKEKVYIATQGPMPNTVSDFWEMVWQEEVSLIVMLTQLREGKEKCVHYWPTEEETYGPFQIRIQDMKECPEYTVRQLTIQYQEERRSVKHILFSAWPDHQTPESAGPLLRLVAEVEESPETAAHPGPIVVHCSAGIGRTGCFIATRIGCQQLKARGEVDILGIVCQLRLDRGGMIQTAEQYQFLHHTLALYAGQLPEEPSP

[6] = target: T5, Dual specificity protein phosphatase 3 (Homo sapiens, UniProt P51452); assay: VHR1 phosphatase inhibitors, primary screen, biochemical, absorbance, uHTS (AID 1654)
[7] = target: T2, Dual specificity protein phosphatase 6; assay type: functional
[8] = target: T5, Dual specificity protein phosphatase 3; assay: VHR1 phosphatase inhibitors, biochemical (AID 1878)
[9] = target: T5, Dual specificity protein phosphatase 3; assay: SAR VHR1 absorbance Assay for In Vitro dose response studies. [Related pubchem assays (depositor defined):AID1654, AID1661, AID1878, AID1992, AID2004]
[10] = target: DNA dC->dU-editing enzyme APOBEC-3A (Homo sapiens, UniProt P31941); assay: APOBEC3A DNA deaminase inhibitors, dose response, biochemical (AID 504722); assay type: functional
[11] = target: T5, Dual specificity protein phosphatase 3; assay: SAR VHR1 Fluorescent Assay for In Vitro dose response studies. [Related pubchem assays (depositor defined):AID1654, AID1661, AID1878, AID1992, AID2004, AID2070, AID2085]; assay type: functional
[12] = target: T5, Dual specificity protein phosphatase 3; assay: SAR VHR1 Fluorescent Assay for In Vitro dose response studies Set 2. [Related pubchem assays (depositor defined):AID1654, AID1661, AID1878]; assay type: functional
[13] = target: T4, Tyrosine-protein phosphatase non-receptor type 7; assay: redox-dependent HePTP inhibition, mechanism study, biochemical, fluorescence (AID 2068); assay type: functional
[14] = target: T4, Tyrosine-protein phosphatase non-receptor type 7; assay: HePTP (PTPN7) phosphatase inhibitor potency, SAR follow-up, biochemical, set 2 (AID 449736); assay type: functional
[15] = target: Glucose-6-phosphate 1-dehydrogenase (Homo sapiens, UniProt P11413); assay: human G6PD enzyme inhibitors, dose response, selectivity assay for P. falciparum G6PD inhibitor project, biochemical, fluorescence (AID 504792); assay type: functional
[16] = target: T2, Dual specificity protein phosphatase 6; assay: SAR analysis of inhibitors of MKP-3 - Set 2. [Related pubchem assays (depositor defined):AID1055, AID1661, AID425, AID553, AID566]; assay type: functional
[17] = target: Lysine-specific demethylase 4C (Homo sapiens, UniProt Q9H3R0); assay: GASC-1 (JMJD2C) histone demethylase inhibitors, dose response, biochemical, DELFIA europium, cherry-picked samples (AID 488835); assay type: functional
BJ [18] = assay: cells; assay type: functional, cell-based; conditions: Homo sapiens
BJ [19] = assay: cytotoxicity toward BJ-TERT fibroblasts, dose response, cell-based, RAS-independent, luminescence (AID 1933); assay type: functional; conditions: Homo sapiens
BJ [20] = assay: cytotoxicity toward Ras-transformed BJeLR fibroblasts, dose response, cell-based, alamar blue fluorescence, cherrypicked samples (AID 2631); assay type: functional; conditions: Homo sapiens;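 note: confirmatory dose-response assay in RAS-dependent BJ fibroblasts engineered with TERT, LT and ST, with cytotoxicity read by fluorescence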
BJ [21] = assay: cytotoxicity toward BJ-TERT-LT-ST fibroblasts, dose response, cell-based, RAS-independent, luminescence (AID 1935); assay type: functional; conditions: Homo sapiens;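 note: BJ fibroblasts immortalized with TERT plus LT and ST oncogenes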
HEK293 [22] = assay: cells; conditions: Homo sapiens
[23] = cytotoxicity toward DRD oncogenic fibroblasts, dose response, cell-based, non-viral oncogenic, luminescence (AID 1934); assay type: functional; conditions: Homo sapiens
[24] = growth induction of Burl-1 ts yeast mutant, dose response, counter-screen for SUMOylation pathway inhibitor project, whole organism, S. cerevisiae, luminescence (AID 463199); assay type: functional
HEK293 [25] = assay: cells; conditions: Homo sapiens; remark: listed apart in the source

T5 sequence (P51452 whole entry): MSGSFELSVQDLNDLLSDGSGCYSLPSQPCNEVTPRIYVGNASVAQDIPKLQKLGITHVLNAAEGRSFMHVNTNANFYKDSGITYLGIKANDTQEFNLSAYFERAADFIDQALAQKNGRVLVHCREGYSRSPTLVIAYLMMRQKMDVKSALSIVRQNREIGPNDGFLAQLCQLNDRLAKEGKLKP
Sequence of Glucose-6-phosphate 1-dehydrogenase (P11413 whole entry): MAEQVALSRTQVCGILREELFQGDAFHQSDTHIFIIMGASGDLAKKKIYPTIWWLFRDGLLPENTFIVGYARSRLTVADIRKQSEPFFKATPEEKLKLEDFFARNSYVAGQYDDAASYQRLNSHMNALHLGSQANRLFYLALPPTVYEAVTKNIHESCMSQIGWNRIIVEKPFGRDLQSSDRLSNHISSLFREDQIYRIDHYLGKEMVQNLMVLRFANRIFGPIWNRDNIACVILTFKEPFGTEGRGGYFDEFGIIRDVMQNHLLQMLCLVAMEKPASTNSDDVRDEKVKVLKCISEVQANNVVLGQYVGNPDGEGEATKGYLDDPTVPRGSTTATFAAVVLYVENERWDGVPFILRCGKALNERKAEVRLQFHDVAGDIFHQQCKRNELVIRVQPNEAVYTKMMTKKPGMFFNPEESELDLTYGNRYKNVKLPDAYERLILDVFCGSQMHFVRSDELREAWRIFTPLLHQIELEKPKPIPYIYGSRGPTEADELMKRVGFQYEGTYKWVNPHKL
Sequence of Lysine-specific demethylase 4C (Q9H3R0 whole entry): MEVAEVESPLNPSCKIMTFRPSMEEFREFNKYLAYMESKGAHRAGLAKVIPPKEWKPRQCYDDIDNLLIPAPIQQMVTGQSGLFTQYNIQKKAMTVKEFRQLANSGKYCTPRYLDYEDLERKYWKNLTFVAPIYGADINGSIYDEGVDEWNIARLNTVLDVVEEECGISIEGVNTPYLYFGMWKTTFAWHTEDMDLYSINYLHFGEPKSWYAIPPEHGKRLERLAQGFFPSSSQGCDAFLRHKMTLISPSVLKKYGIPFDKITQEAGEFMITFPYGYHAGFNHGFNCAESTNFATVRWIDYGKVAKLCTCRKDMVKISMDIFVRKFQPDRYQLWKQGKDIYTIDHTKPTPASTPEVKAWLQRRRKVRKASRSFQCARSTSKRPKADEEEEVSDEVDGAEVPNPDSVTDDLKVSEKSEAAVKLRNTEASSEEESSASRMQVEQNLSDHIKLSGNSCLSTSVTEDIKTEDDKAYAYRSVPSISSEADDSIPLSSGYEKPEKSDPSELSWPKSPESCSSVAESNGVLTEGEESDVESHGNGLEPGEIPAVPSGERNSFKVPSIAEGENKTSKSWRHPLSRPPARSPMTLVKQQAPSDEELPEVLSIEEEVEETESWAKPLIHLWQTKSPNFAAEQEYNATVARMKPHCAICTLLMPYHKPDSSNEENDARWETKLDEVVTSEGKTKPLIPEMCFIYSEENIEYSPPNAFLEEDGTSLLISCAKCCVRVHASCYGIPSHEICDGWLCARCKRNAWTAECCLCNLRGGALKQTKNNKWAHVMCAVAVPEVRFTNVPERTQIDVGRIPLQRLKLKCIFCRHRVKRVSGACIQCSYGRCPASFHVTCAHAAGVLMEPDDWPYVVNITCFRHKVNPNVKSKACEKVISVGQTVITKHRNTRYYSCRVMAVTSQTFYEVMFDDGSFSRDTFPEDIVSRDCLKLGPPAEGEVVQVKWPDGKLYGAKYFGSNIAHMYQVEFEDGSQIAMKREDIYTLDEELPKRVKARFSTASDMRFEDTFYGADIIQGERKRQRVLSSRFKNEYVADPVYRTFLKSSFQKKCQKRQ
Sequence of DNA dC->dU-editing enzyme APOBEC-3G (Q9HC16 whole entry): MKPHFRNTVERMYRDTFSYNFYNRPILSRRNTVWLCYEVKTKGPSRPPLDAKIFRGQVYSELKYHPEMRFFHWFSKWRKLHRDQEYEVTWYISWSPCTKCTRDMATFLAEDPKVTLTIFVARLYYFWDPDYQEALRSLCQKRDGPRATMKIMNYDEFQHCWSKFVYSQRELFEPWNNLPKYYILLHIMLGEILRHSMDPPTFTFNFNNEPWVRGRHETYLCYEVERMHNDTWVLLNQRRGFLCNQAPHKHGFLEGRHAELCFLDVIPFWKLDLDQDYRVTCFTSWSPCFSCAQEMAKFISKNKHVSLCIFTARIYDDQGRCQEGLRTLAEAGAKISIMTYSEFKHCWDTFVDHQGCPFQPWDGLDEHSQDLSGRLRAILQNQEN
Sequence of DNA dC->dU-editing enzyme APOBEC-3A (P31941 whole entry): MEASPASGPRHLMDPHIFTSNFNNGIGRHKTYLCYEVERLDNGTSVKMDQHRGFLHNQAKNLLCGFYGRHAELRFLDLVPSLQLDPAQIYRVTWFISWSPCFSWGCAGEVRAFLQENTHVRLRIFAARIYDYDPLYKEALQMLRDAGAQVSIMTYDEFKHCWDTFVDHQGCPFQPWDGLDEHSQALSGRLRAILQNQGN
Sequence of Phosphomannomutase 2 (O15305 whole entry): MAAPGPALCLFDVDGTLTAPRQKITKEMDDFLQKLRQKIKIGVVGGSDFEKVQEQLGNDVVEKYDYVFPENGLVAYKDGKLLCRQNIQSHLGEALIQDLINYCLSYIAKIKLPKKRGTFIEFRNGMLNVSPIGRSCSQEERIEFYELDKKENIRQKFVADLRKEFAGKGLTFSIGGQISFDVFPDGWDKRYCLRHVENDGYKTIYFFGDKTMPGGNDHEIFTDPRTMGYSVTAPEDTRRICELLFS

For `Cc1ccc(/N=c2\ssnc2Cl)c([N+](=O)[O-])c1`, the IC50 [1] was 4.44 µM (active) and the IC50 (Phosphomannomutase 2) was 96.2 µM (active).

With `CN1CCN(C(=O)c2sc(=S)n(-c3ccccc3)c2N)CC1` the IC50 [2] was > 158 µM (not active), the IC50 [3] was 191 µM (active) and the IC50 [4] was 5.51 µM (active). For the same molecule, the IC50 [5] was 1.05 µM (active), the IC50 [6] was 1.27 µM (active) and the IC50 [7] was > 99 µM (inactive). The IC50 [8] was 3.53 µM (active), the IC50 [9] was 0.53 µM (active) and the IC50 [10] was > 100 µM (inactive). For the same molecule, the IC50 [11] was > 99 µM (inactive), the IC50 [12] was 0.26 µM (active) and the IC50 [13] was 0.0586 µM (active). The IC50 [14] was 1.14 µM (active) and > 100 µM (inactive) and 7.06 µM (active), the IC50 [15] was > 80 µM (inactive) and the IC50 [16] was > 100 µM (inactive).

For `CCOC(=O)C1=CC(=C2C(=O)N(CC)C(=S)N(CC)C2=O)c2ccccc2O1`, the AC50 [17] was 12.2 µM (active).

With `CC(C)c1cc(C(=O)N/N=C/C(Br)=C/c2ccccc2)[nH]n1` the EC50 (BJ [18]) was 4.12 µM (active), the EC50 (BJ [19]) was 29.6 µM (active) and the EC50 (BJ [20]) was 22.2 µM (active). For the same molecule, the EC50 (BJ [21]) was > 150 µM (inconclusive), the EC50 (HEK293 [22]) was > 59.7 µM (inactive) and the EC50 [23] was 5.12 µM (active). For the same molecule, the AC50 [24] was 137 µM (active) and the EC50 (HEK293 [25]) was > 59.7 µM (inactive).
